# ChEMBL document CHEMBL2074405, “Transport of monoamine transmitters by the organic cation transporter type 2, OCT2” (J Biol Chem, 1998)
# Values joined by “and” are separate entries in the source; they are usually repeats but may differ in a detail not shown here. Identical values can stand only once.
# T1: Solute carrier family 22 member 2 (Rattus norvegicus, UniProt Q9R0W2)
# T1 sequence (Q9R0W2 whole entry): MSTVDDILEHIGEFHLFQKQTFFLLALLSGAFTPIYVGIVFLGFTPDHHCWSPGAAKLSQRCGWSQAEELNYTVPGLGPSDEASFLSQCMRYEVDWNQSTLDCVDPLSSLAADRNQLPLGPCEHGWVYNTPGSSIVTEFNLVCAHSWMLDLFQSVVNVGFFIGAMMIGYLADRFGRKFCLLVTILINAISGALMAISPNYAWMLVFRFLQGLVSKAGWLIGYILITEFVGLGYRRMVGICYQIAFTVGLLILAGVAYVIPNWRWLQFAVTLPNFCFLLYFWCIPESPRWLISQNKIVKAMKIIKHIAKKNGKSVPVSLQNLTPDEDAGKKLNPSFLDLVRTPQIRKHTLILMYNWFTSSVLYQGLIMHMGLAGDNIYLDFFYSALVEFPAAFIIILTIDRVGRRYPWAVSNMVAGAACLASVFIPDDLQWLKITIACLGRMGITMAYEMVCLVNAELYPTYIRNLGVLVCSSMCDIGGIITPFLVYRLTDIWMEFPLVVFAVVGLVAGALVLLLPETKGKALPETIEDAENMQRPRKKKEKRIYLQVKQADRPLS
# Experiments:
# [1] = molecular target: T1, Solute carrier family 22 member 2; experiment: TP_TRANSPORTER: inhibition of Dopamine uptake (Dopamine: 0.1 uM, Cocaine: 1 uM) in OCT2-expressing HEK293 cells; type: functional, cell-based; conditions: human, hek293, 1 µM
# [2] = molecular target: T1, Solute carrier family 22 member 2; experiment: TP_TRANSPORTER: inhibition of Dopamine uptake in OCT2-expressing HEK293 cells; type: functional, cell-based
# [3] = molecular target: T1, Solute carrier family 22 member 2; experiment: TP_TRANSPORTER: inhibition of Noradrenaline uptake in OCT2-expressing HEK293 cells; type: functional, cell-based
# [4] = molecular target: T1, Solute carrier family 22 member 2; experiment: TP_TRANSPORTER: inhibition of Adrenaline uptake in OCT2-expressing HEK293 cells; type: functional, cell-based
# [5] = molecular target: T1, Solute carrier family 22 member 2; experiment: TP_TRANSPORTER: inhibition of Serotonin uptake in OCT2-expressing HEK293 cells; type: functional, cell-based
# [6] = molecular target: T1, Solute carrier family 22 member 2; experiment: TP_TRANSPORTER: inhibition of Dopamine uptake (Dopamine: 0.1 uM, O-Methylisoprenaline: 30 uM) in OCT2-expressing HEK293 cells; type: functional, cell-based; conditions: human, hek293, 30 µM
# [7] = substrate: NC[C@H](O)c1ccc(O)c(O)c1; experiment: cells, lysate or membranes named
# Description: (§1) TP_TRANSPORTER: uptake in OCT2-expressing HEK293 cells
# [8] = substrate: NCCc1ccc(O)c(O)c1; experiment: cells, lysate or membranes named
# [9] = substrate: NCCc1c[nH]c2ccc(O)cc12; experiment: cells, lysate or membranes named
# Description: as §1
# [10] = substrate: CNC[C@H](O)c1ccc(O)c(O)c1; experiment: cells, lysate or membranes named
Molecule,Ki [2] [nM],Ki [3] [nM],Ki [4] [nM],Ki [5] [nM],other results
COC(=O)[C@H]1[C@@H](OC(=O)c2ccccc2)C[C@@H]2CC[C@H]1N2C [COCAINE],–,–,–,–,Activity [1]: is not an inhibitor [-]
C[C@]12C[C@H](O)[C@H]3[C@@H](CCC4=CC(=O)CC[C@@]43C)[C@@H]1CC[C@@H]2C(=O)CO [CORTICOSTERONE],390,460,420,605,–
CC(C)N1/C(=C\c2cc[n+](C(C)C)c3ccccc23)C=Cc2ccccc21 [DISPROCYNIUM24],5.1,13,12,13,–
COc1cc(C(O)CNC(C)C)ccc1O (centres undefined) [METIPRENALINE],–,–,–,–,Activity [6]: is not an inhibitor [-]
Solute carrier family 22 member 2 (Rattus norvegicus) (protein) MSTVDDILEHIGEFHLFQKQTFFLLALLSGAFTPIYVGIVFLGFTPDHHCWSPGAAKLSQRCGWSQAEELNYTVPGLGPSDEASFLSQCMRYEVDWNQSTLDCVDPLSSLAADRNQLPLGPCEHGWVYNTPGSSIVTEFNLVCAHSWMLDLFQSVVNVGFFIGAMMIGYLADRFGRKFCLLVTILINAISGALMAISPNYAWMLVFRFLQGLVSKAGWLIGYILITEFVGLGYRRMVGICYQIAFTVGLLILAGVAYVIPNWRWLQFAVTLPNFCFLLYFWCIPESPRWLISQNKIVKAMKIIKHIAKKNGKSVPVSLQNLTPDEDAGKKLNPSFLDLVRTPQIRKHTLILMYNWFTSSVLYQGLIMHMGLAGDNIYLDFFYSALVEFPAAFIIILTIDRVGRRYPWAVSNMVAGAACLASVFIPDDLQWLKITIACLGRMGITMAYEMVCLVNAELYPTYIRNLGVLVCSSMCDIGGIITPFLVYRLTDIWMEFPLVVFAVVGLVAGALVLLLPETKGKALPETIEDAENMQRPRKKKEKRIYLQVKQADRPLS,–,–,–,–,Km [7]: 11 mM and 4.4 mM; Km [8]: 2.1 mM; Km [9]: 3.6 mM; Km [10]: 1.9 mM
